Experimental data as given in patent US12655135B2, “Benzo seven-membered ring bifunctional compound and application thereof” (CHIA TAI TIANQING PHARMACEUTICAL GROUP CO., LTD., priority 2021, dated 2026).

Molecular target: T1, ERα (Homo sapiens, UniProt P03372)
T1 construct: endogenous in cells; host or cells: MCF-7
T1 sequence (P03372 1-595): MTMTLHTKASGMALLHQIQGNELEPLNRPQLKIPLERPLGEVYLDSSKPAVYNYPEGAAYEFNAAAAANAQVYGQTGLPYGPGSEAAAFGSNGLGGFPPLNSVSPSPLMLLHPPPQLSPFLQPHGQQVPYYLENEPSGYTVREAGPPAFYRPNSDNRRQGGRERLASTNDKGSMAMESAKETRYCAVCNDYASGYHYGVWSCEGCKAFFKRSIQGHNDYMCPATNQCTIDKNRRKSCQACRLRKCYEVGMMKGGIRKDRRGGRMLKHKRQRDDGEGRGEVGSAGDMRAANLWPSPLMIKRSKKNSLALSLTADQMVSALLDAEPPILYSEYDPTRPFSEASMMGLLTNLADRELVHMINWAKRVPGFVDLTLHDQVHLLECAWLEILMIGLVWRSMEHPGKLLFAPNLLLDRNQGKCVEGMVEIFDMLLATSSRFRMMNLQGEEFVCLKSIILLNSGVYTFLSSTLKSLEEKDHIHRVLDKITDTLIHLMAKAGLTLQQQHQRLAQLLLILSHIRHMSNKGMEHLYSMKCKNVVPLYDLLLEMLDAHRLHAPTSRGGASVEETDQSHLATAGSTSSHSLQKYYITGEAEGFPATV
Assay: MCF-7 ERα degradation experiment (Human Total ERα ELISA, 4 h incubation)
Assay type: cell-based
Conditions: MCF-7 cells, 4 h incubation at 37° C., ERα by ELISA; Max well 100 nM FUL, Min well 0.5% DMSO; read-out: Degradation of ERα by compounds DC50
Protocol: Experimental Example 1: MCF-7 ERα Degradation Experiment
Compounds were tested for their ability to degrade ERα receptors under experimental conditions.
Phenol red-free MEM medium was purchased from Wisent, fetal bovine serum was purchased from Biosera, and Human Total ERα/NR3A1 ELISA kits were purchased from R&D. MCF-7 cell line was purchased from the Cell Bank of Type Culture Collection Committee of the Chinese Academy of Sciences. Nivo5 multi-marker analyzer (PerkinElmer).
• 1. MCF-7 cells were resuspended in medium (phenol red-free MEM+5% Charcoal Dextran Stripped FBS+1% PS), seeded in a 96-well clear cell culture plate, and incubated overnight in a carbon dioxide incubator; • 2. ELISA plate was coated with stripes, Human Total ERα Capture Antibody was diluted with 1×PBS, and the plate was incubated at 25° C. overnight. Day Two: • 1. Cell administration: The compounds to be tested were diluted to the 8th concentration. The concentration of the compound was 20 μM, and the compound was diluted successively to the 8th concentration of 0.256 nM at 4 μM. Two duplicate wells were set. The compound was transferred to the intermediate plate and then to the cell plate to give a final DMSO concentration of 0.5% per well, and the plate was incubated at 37° C. for 4 h; • 2. preparation of standard curve solution: 110 ng/mL of standard curve stock solution was 6-fold diluted with buffer #8 to give a solution with a concentration of 18.3 ng/mL. Then, 8-point gradient dilution was performed using buffer #3 with a final concentration of 200 pg/mL to 1.56 pg/mL; • 3. the ELISA plate was washed 3 times with a washing solution (1×PBS containing 0.05% Tween); • 4. 300 μL of blocking solution (1×PBS containing 1% BSA) was added to each well, and the plate was incubated at 25° C. for 2 h; • 5. 1×PBS was pre-cooled. After the incubation of the compound, the supernatant was removed, the plate was washed with pre-cooled 1×PBS, the cell lysate was added, and the cells were lysed on ice for 15 min; • 6. the blocking solution was removed from the ELISA plate, the plate was washed, and step 3 was repeated; • 7. after the cells were lysed, in the cell plate, the cell lysate was 6-fold diluted with 150 μL of buffer #8 per well, the mixture was pipetted and mixed well, and 100 μL of solution per well was transferred to the ELISA plate; • 8. at the same time, 100 μL of Standard per well was transferred to the ELISA plate and incubated overnight at 25° C. Day Three: • 1. The supernatant was removed, and the plate was washed 3 times with a washing solution; • 2. Human Total ERα Detection Antibody stock solution ([…]) was 36-fold diluted with buffer #1 (1×PBS containing 1% BSA), and the final concentration of Detection Antibody was 400 ng/mL. 100 μL/well of the solution was transferred to the ELISA plate, and the plate was incubated at 25° C. for 2 h; • 3. the plate was washed with buffer #1; • 4. Streptavidin-HRP A was 200-fold diluted with buffer #1 (1×PBS containing 1% BSA), 100 μL/well of the solution was transferred to the ELISA plate, and the plate was incubated at 25° C. for 20 min; • 5. the plate was washed with buffer #1; • 6. 100 μL of Substrate Solution per well (1:1 mixture of reagent A (H2O2) and reagent B (tetramethylbenzidine)) was added to the ELISA plate, and the plate was incubated at 25° C. for 20 min; • 7. […] of stop solution was added and the OD450 absorbance was read on a plate reader. Data Analysis: […]

Compound `CC(C)(O)c1ccc(C2=C(c3ccc(N4CCC(CN5CCN(c6ccc7c(c6)CN([C@H]6CCC(=O)NC6=O)C7=O)CC5)CC4)cc3)c3ccc(O)cc3CCC2)cn1` [Compound 23] has a DC50 of 1.4 nM.

`O=C1CC[C@H](N2Cc3cc(N4CCN(CCC5CCN(c6ccc(C7=C(c8ccccc8)CCCc8cc(O)ccc87)cc6)CC5)CC4)ccc3C2=O)C(=O)N1` [Compound 4] showed a DC50 of 1.5 nM.

In the case of `O=C1CC[C@H](N2Cc3cc(N4CCN(CC5CCN(c6ccc(C7=C(c8ccc(C9CC9)nc8)CCCc8cc(O)ccc87)cc6)CC5)CC4)ccc3C2=O)C(=O)N1` [Compound 17], the DC50 is reported as 9.4 nM.

With `O=C1CC[C@H](N2Cc3cc(N4CCN(CC5CCN(c6ccc(C7=C(c8ccc(OC9CC9)cc8)CCCc8cc(O)ccc87)cc6)CC5)CC4)ccc3C2=O)C(=O)N1` [Compound 26] the DC50 was 1.7 nM.

For `O=C1CC[C@H](N2Cc3cc(N4CCN(CC5CCN(c6ccc(C7=C(c8ccc(F)cc8)CCCc8cc(O)ccc87)cc6)CC5)CC4)ccc3C2=O)C(=O)N1` [Compound 6], the DC50 was 1 nM.

With `O=C1CC[C@H](N2Cc3cc(N4CCN(CC5CCN(c6ccc(C7=C(c8ccc(OC(F)F)cc8)CCCc8cc(O)ccc87)cc6)CC5)CC4)ccc3C2=O)C(=O)N1` [Compound 24] the DC50 was 0.7 nM.

`O=C1CC[C@H](N2Cc3cc(N4CCN(CC5CCN(c6ccc(C7=C(c8ccc(F)nc8)CCCc8cc(O)ccc87)cc6)CC5)CC4)ccc3C2=O)C(=O)N1` [Compound 19] showed a DC50 of 2.1 nM.

`O=C1CC[C@H](N2Cc3cc(N4CCN(CCC5CCN(c6ccc(C7=C(c8ccccc8)CCCc8cc(C(=O)O)ccc87)cc6)CC5)CC4)ccc3C2=O)C(=O)N1` [Compound 13] showed a DC50 of 4.47 nM.

`O=C1CCC(N2Cc3cc(N4CCN(CC5CCN(c6ccc(C7=C(c8ccccc8)CCCc8cc(O)ccc87)cc6)CC5)CC4)ccc3C2=O)C(=O)N1` (centres unmarked) [Compound 2] was tested, and the DC50 was 2.69 nM.

For `O=C1CC[C@H](N2Cc3cc(N4CCN(CC5CCN(c6ccc(C7=C(c8ccc(Cl)cc8)CCCc8cc(O)ccc87)cc6)CC5)CC4)ccc3C2=O)C(=O)N1` [Compound 5], the DC50 was 1.8 nM.

With `O=C1CC[C@H](N2Cc3cc(N4CCN(CC5CCN(c6ccc(C7=C(c8ccc(OC(F)(F)F)cc8)CCCc8cc(O)ccc87)cc6)CC5)CC4)ccc3C2=O)C(=O)N1` [Compound 25] the DC50 was 5.7 nM.

For `O=C1CCC(N2Cc3cc(N4CCN(CC5CCN(c6ccc(C7=C(c8ccc(Cl)cc8Cl)CCCc8cc(C(=O)O)ccc87)cc6)CC5)CC4)ccc3C2=O)C(=O)N1` (centres unmarked) [Compound 3], the DC50 was 5.8 nM.

Work on `O=C1CC[C@H](N2Cc3cc(N4CCN(CC5CCN(c6ccc(C7=C(c8ccc(C(F)(F)F)nc8)CCCc8cc(O)ccc87)cc6)CC5)CC4)ccc3C2=O)C(=O)N1` [Compound 15] yielded a DC50 of 1.7 nM.

`Cc1ccc(C2=C(c3ccc(N4CCC(CN5CCN(c6ccc7c(c6)CN([C@H]6CCC(=O)NC6=O)C7=O)CC5)CC4)cc3)c3ccc(O)cc3CCC2)c(C)n1` [Compound 22] gave a DC50 of 2.4 nM.

In the case of `COc1ccc2c(c1)CCCC(c1ccccc1)=C2c1ccc(N2CCC(CN3CCN(c4ccc5c(c4)CN([C@H]4CCC(=O)NC4=O)C5=O)CC3)CC2)cc1` [Compound 7], the DC50 is reported as 8 nM.

Work on `O=C1CC[C@H](N2Cc3cc(N4CCN(CC5CCN(c6ccc(C7=C(c8ccc(O)cc8)CCCc8cc(O)ccc87)cc6)CC5)CC4)ccc3C2=O)C(=O)N1` [Compound 9] yielded a DC50 of 0.4 nM.

With `O=C1CCC(N2Cc3cc(N4CCN(CCCCCOc5ccc(C6=C(c7ccccc7)CCCc7cc(O)ccc76)cc5)CC4)ccc3C2=O)C(=O)N1` (centres unmarked) [Compound 1] the DC50 was 0.84 nM.

`Cc1ccc(C2=C(c3ccc(N4CCC(CN5CCN(c6ccc7c(c6)CN([C@H]6CCC(=O)NC6=O)C7=O)CC5)CC4)cc3)c3ccc(O)cc3CCC2)cc1` [Compound 11] showed a DC50 of 1 nM.

`O=C1CC[C@H](N2Cc3cc(N4CCN(CC5CCN(c6ccc(C7=C(c8ccccc8)CCCc8cc(C(=O)O)ccc87)cc6)CC5)CC4)ccc3C2=O)C(=O)N1` [Compound 12] showed a DC50 of 4.73 nM.

`Cc1ccc(C2=C(c3ccc(N4CCC(CN5CCN(c6ccc7c(c6)CN([C@H]6CCC(=O)NC6=O)C7=O)CC5)CC4)cc3)c3ccc(O)cc3CCC2)cn1` [Compound 16] was tested, and the DC50 was 7.7 nM.

`O=C1CC[C@H](N2Cc3cc(N4CCN(CC5CCN(c6ccc(C7=C(c8ccccc8)CCCc8cc(O)ccc87)cc6)CC5)CC4)ccc3C2=O)C(=O)N1` [Compound 14] showed a DC50 of 1.1 nM.

`COc1ccc2c(c1)CCCC(c1ccc(F)cc1)=C2c1ccc(N2CCC(CN3CCN(c4ccc5c(c4)CN([C@H]4CCC(=O)NC4=O)C5=O)CC3)CC2)cc1` [Compound 8] was tested, and the DC50 was 8.3 nM.

`COc1ccc2c(c1)OCCC(c1ccccc1)=C2c1ccc(N2CCC(CN3CCN(c4ccc5c(c4)CN([C@H]4CCC(=O)NC4=O)C5=O)CC3)CC2)cc1` [Compound 10] was tested, and the DC50 was 5.7 nM.

`O=C1CC[C@H](N2Cc3cc(N4CCN(CC5CCN(c6ccc(C7=C(c8cccnc8)CCCc8cc(O)ccc87)cc6)CC5)CC4)ccc3C2=O)C(=O)N1` [Compound 21] was tested, and the DC50 was 1.9 nM.

`Cc1nn(C)cc1C1=C(c2ccc(N3CCC(CN4CCN(c5ccc6c(c5)CN([C@H]5CCC(=O)NC5=O)C6=O)CC4)CC3)cc2)c2ccc(O)cc2CCC1` [Compound 18] showed a DC50 of 4.6 nM.

In the case of `O=C1CC[C@H](N2Cc3cc(N4CCN(CC5CCN(c6ccc(C7=C(c8ccncc8)CCCc8cc(O)ccc87)cc6)CC5)CC4)ccc3C2=O)C(=O)N1` [Compound 20], the DC50 is reported as 0.9 nM.
